Reference: patent publication US20060014734A1, “Immediate release pharmaceutical formulation” (priority 2002, published 2006)
Values belong to the compound of their own block, whether it stands above or below them.

How the values were obtained:
[1] = Solubility of esylate salt: final concentration of the solution after filtration; assay type: physicochemical
Description: A solution was prepared by dissolving excess of Compound A as esylate salt in 3 mL water followed by gently stirring over night. A final concentration of the solution after filtration was monitored to 14 mg/ml at a pH of 2.7.
A solution was prepared by dissolving 112 mg of Compound A as esylate salt in 3 mL sodium phosphate buffer followed by gently stirring over night. A final concentration of the solution after filtration was monitored to 33 mg/ml at a pH of 2.7.
A solution was prepared by dissolving 20 mg of Compound A as esylate salt in 3 mL sodium phosphate buffer followed by gently stirring over night. A final concentration of the solution after filtration was monitored to 1.6 mg/ml at a pH of 6.5.

pH of the formulation = assay type: physicochemical
Description: A formulation was prepared by dissolving Compound A in acidified PEG 400/ethanol/water 20/10/70 (w/w) % that was followed by gently stirring. The pH of this solution was 3.6. The solubility of Compound A is at least 250 times higher in this vehicle compared to water alone.
A formulation was prepared by dissolving Compound E in 9 mg/ml NaCl by gently stirring. The pH obtained in this formulation is 8-9.
A formulation was prepared by dissolving Compound F in 9 mg/ml NaCl by gently stirring. The pH obtained in this formulation is 3-4. Formulations of F in this vehicle are stable for at least 2 weeks at room temperature and below.

[2] = Solubility in vehicle compared to water alone; assay type: physicochemical
[3] = Storage stability of liquid formulations; assay type: physicochemical
Description: The pH of this solution was set to 3.8 by addition of HCl. The solubility of Compound A is at least 1000 times higher in this vehicle compared to water alone. Formulations of Compound A in this vehicle are stable for at least 3 months at <−15° C.

[4] = Nanoparticle preparation: particle size and its stability; assay type: physicochemical; conditions: for nanoparticle size: about 100 mM ethanol stock with 25% (w/w) Miglyol, diluted 1/10 in 0.2% PVP and 0.25 mM SDS in water, ultrasonication; for particle sizes after 6 hours at room temperature: nanoparticles after 1/10 dilution in 0.2% PVP and 0.25 mM SDS in water
Description: In order to prepare nanoparticles a stock solution of Compound A of about 100 mM in ethanol was used. Included was also 25% (w/w) Miglyol, calculated on the amount of the substance. The solutions were diluted 1/10 with the stabilizer solution, consisting of 0.2% (w/w) PVP and 0.25 mM SDS in water. The mixing, which is considered as a critical parameter during the nanoparticle preparation, was rapid and instant. The drug solution was rapidly injected into the stabilizer solution during ultrasonication. After the 1/10 dilution in the aqeous solution, nanoparticles of about 150 nm were achieved. After 6 hours at room temperature, the particle sizes were unchanged.
To prepare nanoparticles a stock solution of Compound B of about 100 mM in ethanol was used. Included was also 25% (w/w) Miglyol, calculated on the amount of the substance. The solutions were diluted 1/10 with a stabilizer solution consisting of 0.2% (w/w) PVP and 0.25 mM SDS in water. The critical mixing stage was rapid and instant:—The drug solution was rapidly injected into the stabilizer solution during ultrasonication. After 1/10 dilution in the aqeous solution, nanoparticles of about 110 nm were obtained. After 6 hours at room temperature, the particle sizes were unchanged.

[5] = Plasma concentration 1 hour after oral or subcutaneous administration of solution to rats
Description: A formulation was prepared by dissolving Compound C in saline/ethanol/solutol 90/5/5 (w/w) % followed by gently stirring.

solubility thermodynamic ([1]; pH 2.7, aqueous buffer, thermodynamic from solid, 112 mg in 3 mL sodium phosphate buffer pH 3.1 I = 0.1, stirred over night, at a pH of 2.7): 33 mg/mL
solubility thermodynamic ([1]; pH 2.7, thermodynamic from solid, excess salt in 3 mL water, stirred over night, at a pH of 2.7): 14 mg/mL
solubility thermodynamic ([1]; pH 6.5, aqueous buffer, thermodynamic from solid, 20 mg in 3 mL sodium phosphate buffer pH 6.9 I = 0.1, stirred over night, at a pH of 6.5): 1.6 mg/mL
Compound: CCS(=O)(=O)O.CO/N=C(\N)c1ccc(CNC(=O)C2CCN2C(=O)C(O)c2cc(Cl)cc(OC(F)F)c2)cc1 (centres unmarked) [Compound A as esylate salt]

pH of this solution (pH of the formulation; Example 6: 51 μmol/mL in PEG 400/ethanol/water 20/10/70, water with 50 μmol/mL tartaric acid): 3.6
solubility in this vehicle compared to water alone ([2]; Example 4: PEG 400/ethanol/water 50/5/45 (w/w) %): at least 1000 times
solubility in this vehicle compared to water alone ([2]; Example 5: PEG 400/ethanol/water 20/10/70 (w/w) %): at least 100 times
solubility in this vehicle compared to water alone ([2]; Example 6: acidified PEG 400/ethanol/water 20/10/70, water with 50 μmol/mL tartaric acid, pH 3.6): at least 250 times
solubility in this vehicle compared to water alone ([2]; Example 7: PEG 400/ethanol/water 30/5/65 (w/w) %): at least 200 times
solubility in this vehicle compared to water alone ([2]; Example 8: acidified PEG 400/ethanol/water 30/5/65, tartaric acid, HCl to pH 3.6): at least 400 times
solubility in this vehicle compared to water alone ([2]; Example 9: PEG 400/ethanol/water 40/5/55 (w/w) %): at least 600 times
solubility in this vehicle compared to water alone ([2]; Example 10: acidified PEG 400/ethanol/water 40/5/55, tartaric acid, HCl to pH 3.8): at least 1000 times
solubility in this vehicle compared to water alone ([2]; Example 11: Hydroxypropyl-β-cyclodextrin/water 40/60 (w/w) %, pH set to 4.7 by HCl): at least 700 times
solubility in this vehicle compared to water alone ([2]; Example 12: Hydroxypropyl-β-cyclodextrin/water 28/72 (w/w) %): at least 400 times
solubility in this vehicle compared to water alone ([2]; Example 13: PEG 400/ethanol/solutol/water 50/5/5/40 (w/w) %): at least 80 times
solubility in this vehicle compared to water alone ([2]; Example 14: PEG 400/water 40/60 (w/w) %): at least 200 times
solubility in this vehicle compared to water alone ([2]; Example 15: PEG 400/water 35/65 (w/w) %, water with 50 μmol/mL tartaric acid): at least 250 times
solubility in this vehicle compared to water alone ([2]; Example 16: PEG 400/water 50/50 (w/w) %): at least 300 times
solubility in this vehicle compared to water alone ([2]; Example 17: PEG 400/water 67/33 (w/w) %): at least 400 times
solubility in this vehicle compared to water alone ([2]; Example 18: PEG 400/ethanol/water 45/1/54 (w/w) %): at least 450 times
solubility in this vehicle compared to water alone ([2]; Example 19: acidified PEG 400/ethanol/water 45/1/54, tartaric acid, HCl to pH 4.2): at least 800 times
solubility in this vehicle compared to water alone ([2]; Example 20: PEG 400/ethanol/water 45/2/53 (w/w) %): at least 500 times
solubility in this vehicle compared to water alone ([2]; Example 21: acidified PEG 400/ethanol/water 45/2/53, tartaric acid, HCl to pH 4.3): at least 800 times
solubility in this vehicle compared to water alone ([2]; Example 22: DMA/water 50/50 (w/w) %): at least 230 times
solubility in this vehicle compared to water alone ([2]; Example 23: DMA/water 25/75 (w/w) %): at least 150 times
solubility in this vehicle compared to water alone ([2]; Example 24: water with double equimolar HCl, pH adjusted to 3.6): at least 20 times
solubility in this vehicle compared to water alone ([2]; Example 25: water, HCl to pH 1, then NaOH to pH 3.0): at least 40 times
solubility in this vehicle compared to water alone ([2]; Example 26: DMA/miglyol (miglyol 0.25 g/g Compound A)): at least 4000 times
solubility in this vehicle compared to water alone ([2]; Example 27: Ethanol/Miglyol (miglyol 0.25 g/g Compound A)): at least 4000 times
solubility in this vehicle compared to water alone ([2]; Example 57: PEG 400/ethanol/water 25/10/65 (w/w) %): at least 100 times
solubility in this vehicle compared to water alone ([2]; Example 58: PEG 400/ethanol/water 50/10/40 (w/w) %): at least 2000 times
solubility in this vehicle compared to water alone ([2]; Example 59: PEG 400/ethanol/water 40/10/50 (w/w) %): at least 1500 times
solubility in this vehicle compared to water alone ([2]; Example 60: ethanol, citric acid and water, pH set to 3.2): at least 100 times
time the formulation is stable ([3]; Example 10: acidified PEG 400/ethanol/water 40/5/55, pH 3.8, at <−15° C.): at least 3 months
time the substance is stable in this formulation ([3]; Example 28: 130 μmol/mL in ethanol): more than 1 week
time the formulation is stable ([3]; Example 57: PEG 400/ethanol/water 25/10/65, in a freezer): at least 2 months
time the formulation is stable ([3]; Example 60: ethanol, citric acid and water, pH 3.2, in a freezer): at least 1 month
time the formulation is stable ([3]; Example 61: citric acid in physiological saline, pH 3.6, in a freezer): at least 3 months
time the formulation is stable ([3]; Example 62: PEG 400/ethanol/water 40/5/55 containing citric acid, pH 3.6, in a freezer): at least 1 month
time the formulation is stable ([3]; Example 67: citric acid in physiological saline, pH 3.6, in a freezer): at least 3 months
nanoparticle size [4]: about 150 nm
particle sizes after 6 hours at room temperature [4]: unchanged
Compound: CO/N=C(\N)c1ccc(CNC(=O)[C@@H]2CCN2C(=O)[C@H](O)c2cc(Cl)cc(OC(F)F)c2)cc1 [Compound A, Ph(3-Cl)(5-OCHF2)—(R)CH(OH)C(O)—(S)Aze-Pab(OMe)]

time the formulation is stable ([3]; Example 69: 0.5 mg/mL in PEG 400/ethanol/water 50/5/45, at <−15° C.): at least 1 month
nanoparticle size [4]: about 110 nm
particle sizes after 6 hours at room temperature [4]: unchanged
Compound: CO/N=C(\N)c1cc(F)c(CNC(=O)[C@@H]2CCN2C(=O)[C@H](O)c2cc(Cl)cc(OC(F)F)c2)c(F)c1 [Compound B, Ph(3-Cl)(5-OCHF2)—(R)CH(OH)C(O)—(S)Aze-Pab(2,6-diF)(OMe)]

time the formulation is stable ([3]; Example 73: 0.5 mg/mL in PEG 400/ethanol/water 50/5/45, at room temperature and below): at least 1 month
time the formulation is stable ([3]; Example 74: Hydroxypropyl-β-cyclodextrin/water 20/80, at <8° C.): at least 2 weeks
Compound: CO/N=C(\N)c1ccc(CNC(=O)[C@@H]2CCN2C(=O)[C@H](O)c2cc(Cl)cc(OCCF)c2)cc1 [Compound C, Ph(3-Cl)(5-OCH2CH2F)—(R)CH(OH)C(O)—(S)Aze-Pab(OMe)]

plasma concentration after 1 hour ([5]; oral, dosed: Compound A 4 μmol/mL in saline/ethanol/solutol 90/5/5): 560 nM
plasma concentration after 1 hour ([5]; subcutaneous, dosed: Compound A 4 μmol/mL in saline/ethanol/solutol 90/5/5): 240 nM
plasma concentration after 1 hour ([5]; subcutaneous, dosed: Compound D trifluoroacetate salt 4 μmol/mL in saline/ethanol): 550 nM
time the formulation is stable ([3]; Example 64: acidified PEG 400/ethanol/water 40/5/55, pH 3.6, at <−15° C.): at least 2 months
Compound: N=C(N)c1ccc(CNC(=O)[C@@H]2CCN2C(=O)[C@H](O)c2cc(Cl)cc(OC(F)F)c2)cc1 [Compound D, Ph(3-Cl)(5-OCHF2)—(R)CH(OH)C(O)—(S)Aze-Pab]

pH obtained in this formulation (pH of the formulation; Example 72: dissolved in 9 mg/ml NaCl): 8-9
plasma concentration after 1 hour ([5]; oral, dosed: Compound B 4 μmol/mL in saline/ethanol/solutol 90/5/5): 650 nM
plasma concentration after 1 hour ([5]; subcutaneous, dosed: Compound B 4 μmol/mL in saline/ethanol/solutol 90/5/5): 300 nM
plasma concentration after 1 hour ([5]; subcutaneous, dosed: Compound E acetate salt 4 μmol/mL in saline/ethanol): 750 nM
Compound: N=C(N)c1cc(F)c(CNC(=O)[C@@H]2CCN2C(=O)[C@H](O)c2cc(Cl)cc(OC(F)F)c2)c(F)c1 [Compound E, Ph(3-Cl)(5-OCHF2)—(R)CH(OH)C(O)—(S)Aze-Pab(2,6-diF)]

pH obtained in this formulation (pH of the formulation; Example 75: dissolved in 9 mg/ml NaCl): 3-4
plasma concentration after 1 hour ([5]; oral, dosed: Compound C 4 μmol/mL in saline/ethanol/solutol 90/5/5): 500 nM
plasma concentration after 1 hour ([5]; subcutaneous, dosed: Compound C 4 μmol/mL in saline/ethanol/solutol 90/5/5): 500 nM
plasma concentration after 1 hour ([5]; subcutaneous, dosed: Compound F trifluoroacetate salt 4 μmol/mL in saline/ethanol): 920 nM
time the formulation is stable ([3]; Example 75: 9 mg/ml NaCl, at room temperature and below): at least 2 weeks
Compound: N=C(N)c1ccc(CNC(=O)[C@@H]2CCN2C(=O)[C@H](O)c2cc(Cl)cc(OCCF)c2)cc1 [Compound F, Ph(3-Cl)(5-OCH2CH2F)—(R)CH(OH)C(O)—(S)Aze-Pab]
